Data set [1] relates to human RBC. Kind of data set: Hemolysis assay on human RBC (substance alone). The format is cell-based. How it is done:
(§1) Hemolytic activity was assessed on human RBC. The assay using human erythrocytes followed an established procedure as described in Evans, et al., “Ex vivo red blood cell hemolysis assay for the evaluation of pH-responsive endosomolytic agents for cytosolic delivery of biomacromolecular drugs,” J Vis Exp, 2013, e50166. Briefly, whole peripheral blood was drawn directly into K2-EDTA coated Vacutainer tubes and centrifuged at 500×g (relative centrifugal force). Pelleted erythrocytes were washed twice each with 150 mM NaCl and with phosphate buffered saline (PBS) and then reconstituted in 50-fold excess PBS. Immediately prior to the assay LOX was reconstituted in 20% glycerol in PBS. rPLD toxin was supplied as frozen stock in 10 mM Tris-HCl, 1 mM EDTA, 20% glycerol, was thawed on ice. The lysis assay was performed in 96-wells in a total volume of 200 ul. LOX and PLD toxin were and added as 20× concentrated stocks to the erythrocyte suspension. Triton X-100 (5% in serial dilutions to 0.04%) was used as a positive control. Incubation was performed for 60 min and the absorbance at 400 nm was measured using Tecan GENios microwell plate reader. Measurements were performed in triplicate repeats.

Data set [2] has as its system Loxosceles reclusa venom (LOX). Kind of data set: Inhibition of hemolysis induced by L. reclusa venom (LOX). Format: cell-based. How it is done: (§2) Lyophilized Loxosceles reclusa venom (LOX) was purchased from SpiderPharm, Yarnell, AZ Immediately prior to the assay LOX was reconstituted in 20% glycerol in PBS. Recombinant Loxosceles intermedia Phospholipase D LiSicTox-alphaIA1a full length protein expressed in E.coli (part #MBS1258368), further referred to as rPLD toxin, was purchased from MyBiosource Inc, San Diego, CA Diethyl azelate (>99% purity) was prepared as described in Streeper, el al.,“Oral Azelaic Acid Ester Decreases Markers Of Insulin Resistance In Overweight Male Human Subjects.” In Vivo (2020), 34(3), 1173-1186.
as §1

The test system of data set [3] is Recombinant Loxosceles intermedia Phospholipase D LiSicTox-alphaIA1a (rPLD toxin). Kind of data set: Inhibition of hemolysis induced by recombinant PLD toxin. Format: cell-based. How it is done:
as §2, §1

Data set [4] concerns brown recluse spider bite. Kind of data set: Topical diethyl azelate treatment of brown recluse spider bite. Format: in vivo, human. How it is done: An adult subject was bitten once on their left forearm, and twice on their neck about one year later. Diethyl azelate was applied topically to the envenomation site at approximately 4 to 8 hour intervals for 14 days. Images of the affected neck area were normalized to the same size and converted to JPEG files. Inflamed red areas surrounding the bites visible as elevated lesions were outlined on the images and quantified using ImageJ software version 1.53e (ImageJ.nih.gov).

This note sets out measurements from patent publication US11918555B2, “Dicarboxylic acid esters for the treatment of diseases and conditions associated with phospholipase D toxin” (priority 2020, dated 2024).

`CCOC(=O)CCCCCCCC(=O)OCC` [DEA, Diethyl azelate]: the effect on hemolysis result in data set [1] (human erythrocytes incubated with 122 μM DEA alone) is on record as “no effect on hemolysis”. Besides, the “inhibition of hemolysis by L. reclusa venom, dose dependence” value in data set [2] (FIG. 3 legend) is “inhibits hemolysis”. Besides, the “inhibition of enzymatic activity of PLD toxin as measured by hemolysis induced by L. reclusa spider venom” value in data set [2] (FIG. 4 legend) was “directly inhibits enzymatic activity”. Also, the inhibition of hemolysis entry in data set [2] (preincubation of DEA with LOX for 60 min followed by addition of erythrocytes (FIG. 4)) and in data set [2] (preincubation of DEA with erythrocytes for 60 min followed by addition of LOX (FIG. 4)) was “inhibition of hemolysis” throughout. For the same compound, the “inhibition of hemolysis in the presence of LOX” value in data set [2] (starting at the lowest concentration of 1 μM DEA, constant LOX concentration (FIG. 3)) was “significantly inhibits hemolysis”. Also, the “hemolysis in the presence of PLD toxin” value in data set [3] (1 μM DEA, reduced from 78%) turned out to be 43%; in data set [3] (5 μM DEA), 16%; in data set [3] (24 μM DEA) it was 13%; in data set [3] (122 μM DEA), 5%. For the same compound, in data set [3] (FIG. 3 legend), the “inhibition of hemolysis by recombinant L. intermedia rPLD toxin, dose dependence” value is given as “inhibits hemolysis”. Further, the “inhibition of enzymatic activity of PLD toxin as measured by hemolysis induced by recombinant L. intermedia rPLD toxin” value in data set [3] (FIG. 4 legend) is reported as “directly inhibits enzymatic activity”. In data set [4] (first incident, forearm bite, topical treatment initiated 4 hours after envenomation, by the fourth day), the swelling and discomfort entry is reported as “largely subsided”. Further, the “arm circumference relative to pre-bite” value in data set [4] (first incident, forearm bite, topical treatment initiated 4 hours after envenomation, second day) was “approximately twice”. The “time of maximum inflamed red area around the bites” value in data set [4] (second incident, two neck bites, topical treatment initiated immediately, Day 2) came out at 26 hours post-bite. Moreover, the “redness, pain and swelling” value in data set [4] (second incident, two neck bites, topical treatment initiated immediately, by Day 14) was “entirely resolved”.
On to Triton X100 [reference compound], for which, in data set [1] (human erythrocytes incubated with 5% Triton X100, positive control), the “erythrocytes hydrolyzed (hemolysis)” value is reported as greater than 95%.
